The values that follow come from US6841720B1, “Inducible promoters” (Biogemma UK LTD, priority 1998, dated 2005).

Like-named read-outs stand apart in the source and are kept apart here.

In data set [1] the test system is AoPRT-L promoter-GUS fusion. Description: AoPRT-L promoter-GUS expression in transgenic tobacco (fluorimetric GUS assay). Format: in vivo, Nicotiana tabacum (cv Samsun). The following applies: for Induction of AoPRT-L promoter-GUS fusion: root-fed 3 days, leaf cores; for Time-dependent induction of AoPRT-L promoter-GUS fusion: treatment with 1 mM, time course; for Induction of AoPRT-L promoter-GUS by wound signals: transgenic tobacco, summary statement; for AoPRT-L-promoter-GUS expression after infiltration of pro-oxidant: infiltrated into leaf panels, over the concentration range tested. Here is the method:
The AoPRT-L promoter construct (p22-GUS(INT) Bin 19) was transformed into Nicotiana tabacum (cv Samsun) using standard Agrobacterium tumefaciens-mediated transformation techniques (Draper et al., (1988): Plant Genetic Transformation and Gene Expression—A Laboratory Manual. Blackwell Scientific Publications, Oxford, UK). The expression of the GUS gene driven by the AoPRT-L promoter was analysed using assays described previously (Draper et al., (1988) supra).
Plants were sprayed once, allowed to dry and then sprayed again on the same day (day 0). After 3 or 6 days leaf cores were taken and GUS activity was measured using a standard fluorimetric assay. […] Leaf cores from tobacco harbouring the AoPRT-L promoter fusion with GUS were floated for 3 or 6 days on water containing increasing concentrations of BTH after which time GUS activity in the leaf discs was measured fluorometrically.
Wounding of tobacco leaves (using the hammer method) or infection of tobacco with Pseudomonas syringae pathovar phaseolicola induces local accumulation of the wound-related phytohormone jasmonic acid (JA) (Kenton et al., submitted; Mur et al., (1997) Trends in Microbiol 5:297-300). Leaf cores from tobacco harbouring the AoPRT-L promoter fusion with GUS were floated for 3 days on water containing increasing concentrations of JA after which time GUS activity in the leaf discs was measured using a standard fluorimetric assay. […]
(§1) In order to test whether oxidative stress is likely to induce high levels of AoPRT-L promoter-driven gene expression, H2O2 was infiltrated into leaf panels of transgenic tobacco harbouring the AoPRT-L-promoter-GUS construct (FIG. 13a). […] However, H2O2 has a limited half-life (around 10 mins—Levine et al., (1994) Cell 79: 583-593) in the apoplast, thus the experiment was repeated using a stable peroxide, t-butyl-hydroperoxide (FIG. 13b).

The next data set deals with AoPRT-L mRNA. Description: AoPRT-L mRNA accumulation in Asparagus (Northern hybridisation). Format: in vivo, Asparagus officinalis. As to conditions: treated Asparagus. An excerpt:
In chopped etiolated A. officinalis seedlings (<=0.5 cm in length) the AoPRT-L transcript was detectable from 3 days after wounding (FIG. 3b).

A further data set has as its system AoPRT-L-GUS. The data set can be described thus: AoPRT-L-GUS expression in transgenic maize. The data set is classed as in vivo, Zea mays. The following applies: treated with SA or BTH. The source says:
Maize plants containing AoPRT-L-GUS were produced by biolistic transformation of callus material with pJIT60-P22 GUS int.

The test system of a further data set is AoPRT-Lx3 promoter-GUS. Description: pAoPRT-Lx3-GUS expression in transgenic tobacco. The data set is classed as in vivo, samsun tobacco. As to conditions: on SA or BTH induction. The source says: In order to construct an AoPRT-L promoter that has higher expression, the region −247 bp to −133 bp was amplified from p22-JIT60 and placed twice in front of a −247 bp AoPRT-L promoter. This AoPRT-Lx3 promoter was constructed as follows: The primers below were used to PCR the 0 bp to −247 bp AoPRT-L promoter from p22-JIT60.
This fragment was cloned as a KpnI, XhoI fragment between the KpnI and SalI sites of the pUC19-derived plasmid forming pAoPRT-Lx2. The −133 bp to −247 bp pAoPRT-L fragment was then cloned as a KpnI, XhoI fragment between the KpnI and SalI sites of pAoPRT-Lx2 forming pAoPRT-Lx3 (FIG. 15c). Next the AoPRT-Lx3 promoter was cloned as an KpnI, PstI fragment into KpnI, PstI-cut p22-JIT60 forming pAoPRT-Lx3-JIT60. The pAoPRT-Lx3 was transferred from pAoPRT-L-x-JIT60 as a KpnI, BamHI fragment into KpnI, BamHI-cut p22-GUS (INT) JIT 60. Finally the resulting pAoPRT-Lx3 -GUS-CaMV poly A chimeric gene was cloned as KpnI, XhoI fragments into KpnI, SalI-cut pBin19 and transformed into samsun tobacco.

Data set [2] relates to pGB24 (pAoPRT-L-LhG4 / pOP-GUS). The data set can be described thus: pGB24 amplification construct GUS expression in tobacco. The following applies: on SA or BTH induction. The data set is classed as in vivo. An excerpt:
(§2) A way of increasing the activity of the AoPRT-L promoter whilst retaining tight regulation of the promoter is to use a system that will amplify expression of the AoPRT-L promoter. An amplification system was built using a transactivator (described in WO98/05789 and Moore et al., (1997) Proc. Natl. Acad. Sci. USA. 95, 379-381). The AoPRT-L promoter is linked to a synthetic transactivator (LhG4) and the target promoter of the transactivator (pOP) to the gene to be expressed. LhG4 consists of a mutated E. coli lacI gene fused to the transcriptional activator domain of the GALA from yeast. pOP910 is a minimal 35S CaMV promoter with two binding sites for the LhG4 protein. Since the transactivator can initiate multiple rounds of transcription from pOP, there is amplification of the initial signal that activated the AoPRT-L promoter.
(§3) The amplification system was constructed by the following steps. The pOP910 promoter was excised from pX-910TAG (K. Palme, Max Planck Institut fur Zuchtungsforchung, Koln, Germany) as a SstI-NcoI fragment and cloned into SstI,NcoI-cut pDH68 (pDH68 consists of a Pea Plastocyanin promoter (Pwee and Gray (1993) Plant J. 3, 437-449) linked to an intron GUS gene (D. Twell, Leicester University) cloned between the SstI and EcoRI sites of the vector pJIT30 (Guerineau et al., (1990) Plant Mol. Biol. 15, 127-136)). […]

Data set [3] shares this test system. The data set can be described thus: pGB24 amplification construct GUS expression in B. napus. Format: in vivo, B. napits. As to conditions: on SA or BTH induction.
Text: as §2, §3

The next data set has as its system PR-1a promoter-GUS. As to conditions: transgenic tobacco, cited from earlier work; for PR-1a promoter-GUS / endogenous PR-1a expression: direct application.
A further data set has as its system PR gene promoters. As to conditions: cited from earlier work.
Data set [4] concerns extracellular aPR-5 proteins. As to conditions: leaf discs, cited from earlier work.
The test system of a further data set is barley aPR5. The following applies: in vivo; cited from earlier work.
The test system of the next data set is tobacco leaf tissue. Description: Visible tissue damage in infiltrated transgenic tobacco leaf panels. Here is the method:
as §1

Data set [5] deals with barley homologue of rice thaumatin-like protein. The following applies: 1 ppm; cited from earlier work.

As for `O=C(O)c1ccccc1O` [SA, salicylic acid], the “Time after start of treatment at which induction is observable” value in data set [1] (1 mM SA) came to 1 days. Also, in data set [1] (SA induction), the “GUS activity of AoPRT-L-GUS plants as fraction of that in pPR-1a-GUS-transformed tobacco” value is listed as “about ⅓”. Also, the figures for the “Induction of AoPRT-L promoter-GUS fusion” value in data set [1] (0.1 mM) and in data set [1] (1 mM) were “little induction” and “Substantial induction”, respectively. In [1], the “Time-dependent induction of AoPRT-L promoter-GUS fusion” value is given as “clear time-dependent induction”. Further, in the data set with AoPRT-L mRNA, the “AoPRT-L mRNA accumulation” value is “accumulation was observed”. Moreover, in the data set with AoPRT-L-GUS, the “GUS activity of AoPRT-L-GUS maize on treatment” value is reported as “exhibited GUS activity”. In the data set with AoPRT-Lx3 promoter-GUS, the “GUS activity of pAoPRT-Lx3-GUS plants vs equivalent AoPRT-L-GUS plants” value is given as “significantly greater level of GUS activity”. The “GUS activity of pGB24 plants vs equivalent AoPRT-L-GUS plants” value in data set [2] and in data set [3] was “significantly greater level of GUS activity” throughout. Moreover, the “PR-1a promoter-GUS / endogenous PR-1a expression” value in the data set with PR-1a promoter-GUS was “high levels”. Besides, the “SA concentration at which PR-1a-GUS is clearly induced” value with PR-1a promoter-GUS was 10 to 100 µM. In the data set with PR gene promoters (spraying, injection or root-feeding), the “Induction of expression of PR gene promoters over basal levels” value is on record as 50-1000 fold.
`O=C(O)C(=O)O` [oxalic acid]: in data set [4] (5 mM), the “Induction of extracellular aPR-5 proteins” value was “induced”.
`CC/C=C\C[C@H]1C(=O)CC[C@@H]1CC(=O)O` [JA, jasmonic acid]: the “Induction of AoPRT-L promoter-driven GUS activity in leaf discs” value in data set [1] (leaf cores floated 3 days on increasing concentrations, compared with 1 mM SA) is reported as “failed to induce any increase”. Also, in [1], the “Induction of AoPRT-L promoter-GUS by wound signals” value is “not induced”. Besides, in the data set with barley aPR5, the “Expression of barley aPR5” value is listed as “induces expression”.
`O=C(O)COc1ccc(Cl)cc1Cl` [2,4 D]: in data set [4] (10 mM), the “Induction of extracellular aPR-5 proteins” value is reported as “induced”.
`O=C(O)CC(O)(CC(=O)O)C(=O)O` [citric acid]: the “Induction of extracellular aPR-5 proteins” value in [4] (5 mM) is on record as “induced”.
With `O=C(O)Cc1cccc2ccccc12` [NAA], in data set [4] (10 mM), the “Induction of extracellular aPR-5 proteins” value is “induced”.
Regarding `CC1=CC(=O)CC(C)(C)[C@@]1(O)/C=C/C(C)=C\C(=O)O` [ABA, abscisic acid], the “Level of induction relative to that observed using SA” value in data set [1] (ABA induction vs SA) is “an order of magnitude lower”. The “AoPRT-L-promoter-GUS in leaf discs” value in [1] (high concentration of ABA, leaf discs) is recorded as “slight increase”.
For the compound `CC(C)(C)OO` [t-butyl-hydroperoxide], the “AoPRT-L-promoter-GUS expression after infiltration of pro-oxidant” value in [1] was “no GUS expression was detected”. For the same compound, in the data set with tobacco leaf tissue (leaf panels, higher concentrations for t-butyl-hydroperoxide), the “Visible tissue damage after infiltration” value is recorded as “severe visible tissue damage”.
In the case of `[Cl][Hg][Cl]` [HgCl3], the “Induction of extracellular aPR-5 proteins” value in [4] (5 mM) was “induced”.
As for `O=P(O)(O)CCCl` [ethephon], the “AoPRT-L mRNA accumulation” value in the data set on AoPRT-L mRNA was “not induced”. The “Induction of extracellular aPR-5 proteins” value in data set [4] (10 mM) was “induced”.
As to `O=C(O)c1cc(Cl)nc(Cl)c1` [INA, dichloroisonicotinic acid], in the data set with PR-1a promoter-GUS, the “PR-1a promoter-GUS / endogenous PR-1a expression” value was “high levels”. Besides, the “Expression of barley homologue of rice thaumatin-like protein” value in data set [5] is on record as “induces expression”.
Consider `[Cl-].[Na+]` [salt, NaCl], for which, in [1] (in vivo), the “Induced expression of the AoPRT-L-promoter-GUS construct ('Neither ... induced')” value is recorded as “Neither”.
Take `CSC(=O)c1cccc2nnsc12` [BTH, benzo(1,2,3)thiadiazole-7-carbothoic acid S-methyl ester]: in data set [1] (leaf cores floated 3 or 6 days), the “BTH concentration at which BTH-induced GUS activity is observed” value is 1.25 µM. In addition, the “Induction of AoPRT-L promoter-driven GUS expression by foliar spray” value in [1] (sprayed twice on day 0, 20 μM BTH vs 1 mM SA, leaf cores after 3 or 6 days) was “as effective an inducer of GUS expression driven by the AoPRT-L promoter as was SA”. The “GUS activity of AoPRT-L-GUS maize on treatment” value with AoPRT-L-GUS was “exhibited GUS activity”. Besides, the “GUS activity of pAoPRT-Lx3-GUS plants vs equivalent AoPRT-L-GUS plants” value in the data set with AoPRT-Lx3 promoter-GUS is “significantly greater level of GUS activity”. Besides, the “GUS activity of pGB24 plants vs equivalent AoPRT-L-GUS plants” value in [2] is “significantly greater level of GUS activity”. The “GUS activity of pGB24 plants vs equivalent AoPRT-L-GUS plants” value in [3] is given as “significantly greater level of GUS activity”. In addition, in the data set on PR-1a promoter-GUS, the “PR-1a promoter-GUS / endogenous PR-1a expression” value is “high levels”. Further, the “PR gene expression induced by commercial preparations” value with PR gene promoters (all plants tested including arabidopsis and wheat) was “very strong PR gene expression”. Besides, in the data set with PR gene promoters (aqueous solution), the “Concentration sufficient to induce PR gene expression” value was 1.2 µM. Moreover, in the data set on PR gene promoters (spraying), the “Persistence of gene induction” value is on record as “at least 10 days” and the “Time of maximal gene induction after application” value is 2 days.
On to `O=C(O)c1ccc(O)cc1` [4hBA, 4-hydroxybenzoic acid], for which the “Time-dependent induction of AoPRT-L promoter-GUS fusion” value in data set [1] was “inactive”.
`[Cl][Mn][Cl]` [MnCl2]: the “Induction of extracellular aPR-5 proteins” value in data set [4] (5 mM) is “induced”.
With `OO` [H2O2, hydrogen peroxide], in data set [1], the “AoPRT-L-promoter-GUS expression after infiltration of pro-oxidant” value is recorded as “failed to induce”. Moreover, the “Visible tissue damage after infiltration” value in the data set on tobacco leaf tissue (in vivo) is “no visible symptoms”.
On to `CC(=O)Oc1ccccc1C(=O)O` [aspirin, acetyl-SA], for which the “Induction of extracellular aPR-5 proteins” value in data set [4] (5 mM) was “induced”.
As to `C=C` [ethylene], the “Induction of AoPRT-L promoter-GUS by wound signals” value in data set [1] is reported as “not induced”.
